Results: US11167006B2 (Shanghai Tianci Life Science Development Co., Ltd., priority 2016, dated 2021)
Square brackets hold non-standard residues; d marks the D form. Ends that are not written are not given here.

Tests used:
[1] = system: CFA-induced inflammatory pain in mouse; assay: Analgesic tolerance and cross-tolerance in CFA-induced inflammatory pain; format: in vivo; conditions: mechanical pain, lateral ventricle 6 days or subcutaneous 7 days
Procedure: CFA-induced inflammatory pain in mouse was detected by an electronic Von Frey tenderness instrument, and the basal pain threshold of normal mice was Firstly determined. Then […] of CFA solution was injected subcutaneously into the mouse paw. After 4 days, the mechanical pain sensitivity value of the injected paw of the mouse was measured. And then compound 9 or morphine was injected for 6 consecutive days (lateral ventricle) or 7 consecutive days (subcutaneously), and the mice in morphine group were given compound 9 on day 7 (lateral ventricle) or day 8 (subcutaneous). The mechanical pain thresholds at different time points after administration were recorded.
(§1) The experimental data were expressed as mean± standard error (Means±S.E.M.). Data for differences between groups treated with the same drug were analyzed by one-way ANOVA (Tukey HSD test of one-way ANOVA) for statistics and analysis, *P<0.05. **P<0.005, ***P<0.001 indicates a significant difference between the mechanical pain threshold of the drug-treated group and the pain threshold after the first day of administration.

[2] = system: male mice of Kunming strain; assay: Analgesic tolerance test (photothermal tail flick); format: in vivo, mouse
Procedure: The mice were injected with the drug in the lateral ventricle of the mice for six consecutive days or in the subcutaneous of the mice for eight consecutive days, and their analgesic tolerance were detected by photothermal tail flick method, and the pharmacological activity of the compounds of the present invention in analgesic tolerance was further explored.
In male mice of Kunming strain, the drug was injected continuously in the lateral ventricle for six days, once a day, and the effect of continuous injection of drugs on the pain sensation was detected by a photothermal tail flick instrument. The ambient temperature is controlled at 22±1° C., and the experimental animals are free to eat and drink. The test drug was injected into the lateral ventricle of the mouse for 6 consecutive days, 4 μl per injection. The basic tail flick incubation period (3-5 seconds) was measured before the first day of drug injection, and those mice that were too sensitive or dull were discarded. The tail flick incubation period of 5, 10, 15, 20, 30 min after administration on the first and sixth days was recorded in the experiment. To prevent scald on the tail of the mouse, the maximum tail flick incubation period was set as 10 seconds,
In addition, we further studied the tolerance of subcutaneous administration of compound 9 and morphine in the photothermal tail flick test. The ambient temperature is controlled at 22±1° C., and the experimental animals are free to eat and drink. First, the basic tail flick incubation period (3-5 seconds) of the mice was measured before administration, and then compound 9 or morphine was administered subcutaneously for eight consecutive days. The tail flick incubation period of 10, 15 and 20 minutes after daily administration were recorded. To prevent scald on the tail of the mouse, the maximum tail flick incubation period was set as 10 seconds.
The experimental data is expressed by MPE (maximum possible effect), MPE (%)=100×[(pain threshold after administration−basal pain threshold)/(10 seconds−basal pain threshold)]. The analgesic tolerance of the drug was compared using the MPE value at the time of maximum analgesic effect of the drug. MPE data was expressed as mean±standard error (Means±S.E.M.). The difference in the analgesic effect of continuous administration in the lateral ventricle of the mice for six days was statistically analyzed by the paired T test, and the difference in the analgesic effect of subcutaneous continuous administration for eight days was analyzed by One-way analysis of variance (one-way ANOVA's Tukey HSD test) for statistics, and ***P<0.001 indicates a significant difference from the analgesic effect of the drug injected on the first day.

mice [3] = assay: Conditional position preference test (CPP); format: in vivo, mouse; conditions: subcutaneous 10 mg/kg
Procedure: The conditional position preference experimental device is a closed device (45×20×20 cm) assembled from transparent plexiglass plates. Two 20×20×20 cm conditional preference boxes are located at both ends of the device, with a small compartment 5×20×20 cm having a passage (5×5×5 cm) connected in the middle. On the first day of the experiment, the passage was kept open, the mice was placed into the device for 15 min, and the mice that had been explored for more than 9 min in any of the preference boxes were excluded. […] On day 5, the passage was kept opened again to ensure that the mice were free to enter into the two preference boxes, and the time that the mice stayed in the drug matching preference box within 15 minutes of the total time was recorded.
The experimental relevant data were expressed as mean±standard error (Means±S.E.M.), and the conditional position preference score represents the time spent on the drug matching preference box on day 5 of each mouse minus the time on the first day in this preference box. Differences between groups treated with different drugs in CPP trials were analyzed by one-way ANOVA (Tukey HSD test in one-way ANOVA) for data statistics and analysis.

[4] = system: gastrointestinal movement of male mice of Kunming strain; assay: Gastrointestinal movement in vivo (activated carbon suspension); design: species or system mouse; conditions: 10 mg/kg (compound 9 subcutaneous; morphine positive control)
Procedure: Male mice of Kunming strain, weighing 26±2 g. The commonly used toner detection method was used in the detection of astrointestinal movement in vivo. The specific experimental procedure was: before the gastrointestinal movement experiment, the mice were fasted for 16 hours (free drinking during fasting), then the drug was injected through spinal cord or subcutaneously, and after 15 minutes, the activated carbon suspension prepared in advance (a physiological saline suspension containing 5% of activated carbon and 10% gum arabic) was orally perfused into the stomach in a volume of 0.1 ml per 10 g of body weight. After 30 minutes from the perfusion of activated carbon suspension, the animals were sacrificed by cervical dislocation, and then the small intestine of the animal from the pylorus to the cecum was carefully taken out. The total lengths of the small intestine from the pylorus to the cecum and the furthest distance from which the activated carbon suspension moves were measured.
Gastrointestinal movement test results were evaluated by a percentage of gastrointestinal movement, and the percentage of gastrointestinal movement per mouse was calculated by dividing the moving distance of the activated carbon suspension by the total length of the small intestine. The relevant data were expressed as mean of the percentage of gastrointestinal movement±standard error (Means±S.E.M.), the data for differences between groups treated with different drug concentrations were analyzed by one-way ANOVA (Dunnett test in one-way ANOVA) for statistics and analysis, ***P<0.001 represented that there was a significant difference between the percentage of gastrointestinal movement of the drug-treated group and that of the saline group.

mice [5] = assay: Naloxone withdrawal test; format: in vivo, mouse; conditions: s.c. at 8 hours intervals 20, 40, 60, 80, 100, 100, 100 mg/kg; naloxone 1 mg/kg; 30 minutes
[6] = system: movement activity of mice; assay: Movement activity, open field experiment; format: in vivo, mouse; conditions: subcutaneous 10 mg/kg
Procedure: The movement activity of the mice was tested by open field experiments. The experimental device is consisted of a 50×50×50 cm topless black plexiglass box and a movement monitoring system. The experiment was carried out in a soundproof environment with an indoor temperature being controlled at 22±1° C. After the experiment was started, the mice were first recorded for free movement within 30 minutes, and then compound 9 or morphine was administered subcutaneously, the movement of the mice was detected for another 150 minutes. Before the experiment for each mouse was started, the whole box was wiped with alcohol as a whole to exclude the residual odor of the previous mouse from affecting the accuracy of the data.
The experimental data were expressed as mean±standard error (Means±S.E.M.), and the data for differences between groups treated with different drugs were analyzed by one-way ANOVA (Bonferroni test in one-way ANOVA) for statistics and analysis, ***P<0.001 represents that there was a significant difference between the movement activity of the drug-treated group and that of the saline group.

[7] = system: CCI-induced neuralgia in mouse; assay: Analgesic tolerance and cross-tolerance in CCI-induced neuralgia; format: in vivo; conditions: subcutaneous, seven consecutive days
Procedure: CCI-induced neuralgia in mouse was detected using a PL-200 thermal tingling instrument and an electronic Von Frey tenderness instrument. The thermal pain threshold of one group of normal mice and the mechanical pain threshold of another group of normal mice were first determined. The mice were then anesthetized with sodium pentobarbital 80 mg/kg mouse body weight) and the mice were fixed in the prone position. The right sciatic nerve was exposed and 3 mild ligation rings were made around the sciatic nerve using a 4-0 chromic catgut, 1 mm intervals. The ligation intensity is preferably a slight tremor in the right hind leg. On the 10th day after surgery, the thermal pain sensitivity value and mechanical pain sensitivity value of the right hind paw of the two groups of mice were determined. Compound 9 or morphine was then administered subcutaneously for seven consecutive days, and compound 9 was given to mice in the morphine group on day 8. The thermal tingling and mechanical pain thresholds at different time points after administration were recorded.
as §1, with “mean±standard” for “mean± standard”, “**P<0.01,” for “**P<0.005,”, “the” for “the mechanical”, “First” for “first”

[8] = system: acute pain caused by photothermal therapy in male mice of Kunming strain; conditions: mouse tail flick, lateral ventricle; from ZL201210098832.2; cited from earlier work
[9] = system: formalin-induced pain mice; conditions: lateral ventricle; Br J Pharmacol 2016; cited from earlier work
[10] = lateral ventricle injection, once a day, morphine 4 nmol

Row | Compound | analgesic tolerance on continuous injection [1] | analgesic tolerance ([2]; eight consecutive days subcutaneous, 10 mg/kg) | analgesic effect (MPE) after six days of continuous injection [2, 10] [%] | analgesic effect (MPE) on the first day [2, 10] [%] | analgesic tolerance ([2]; six consecutive days lateral ventricle injection, compounds at 3 times ED50, morphine 4 nmol) | conditional positional preference (mice [3]) | percentage of gastrointestinal movement [4] [%] | average number of jumps after naloxone withdrawal (mice [5]) | total distance of movement [6] [m] | analgesic tolerance on continuous injection, mechanical pain sensitivity [7] | analgesic tolerance on continuous injection, thermal sensitivity pain [7] | analgesic ED50 value of BN-9 [8] [nmol] | analgesic ED50 value of BN-9, formalin first phase pain [9] [nmol] | analgesic ED50 value of BN-9, formalin second phase pain [9] [nmol]
1 | CN1CC[C@]23c4c5ccc(O)c4O[C@H]2[C@@H](O)C=C[C@H]3[C@H]1C5 [morphine, reference compound] | significantly reduced from the fourth day | significantly reduced from day 4 | 36.15 | 86.97 | can significantly cause analgesia tolerance | produced significant conditional positional preference | 16.92 | 47 | 439.73 | from the fourth day | from the third day | – | – | –
2 | Tyr-D-Ala-Gly-Phe-Gln-Pro-Gln-Arg-Phe-NH2 (Y[dA]GFQPQRF-NH2) [BN-9] | – | – | – | – | – | – | – | – | – | – | – | 0.39 | 0.12 | 1.14
